Measurements: PubChem BioAssay (NCI)
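Briefly, cells in 96-well plates were exposed to five compound concentrations for 48 h, and endpoints were estimated by linear interpolation. TGI is the concentration that stops growth completely.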

Experiments:
Assay in all cases: NCI tumour cell line growth inhibition, 48 h
786-0 renal = test system: 786-0 renal
A498 renal = test system: A498 renal
A549 NSCLC = test system: A549 NSCLC
ACHN renal = test system: ACHN renal
BT-549 breast = test system: BT-549 breast
CAKI-1 renal = test system: CAKI-1 renal
COLO 205 colon = test system: COLO 205 colon
DU-145 prostate = test system: DU-145 prostate
EKVX NSCLC = test system: EKVX NSCLC
HCC-2998 colon = test system: HCC-2998 colon
HCT-116 colon = test system: HCT-116 colon
HCT-15 colon = test system: HCT-15 colon
HOP-62 NSCLC = test system: HOP-62 NSCLC
HOP-92 NSCLC = test system: HOP-92 NSCLC
HS 578T breast = test system: HS 578T breast
HT29 colon = test system: HT29 colon
IGROV1 ovarian = test system: IGROV1 ovarian
K-562 leukemia = test system: K-562 leukemia
KM12 colon = test system: KM12 colon
LOX IMVI melanoma = test system: LOX IMVI melanoma
M14 melanoma = test system: M14 melanoma
MALME-3M melanoma = test system: MALME-3M melanoma
MCF7 breast = test system: MCF7 breast
MDA-MB-231 breast = test system: MDA-MB-231 breast
MDA-MB-435 = test system: MDA-MB-435
MDA-N = test system: MDA-N
MOLT-4 leukemia = test system: MOLT-4 leukemia
NCI-H226 lung = test system: NCI-H226 lung
NCI-H23 lung = test system: NCI-H23 lung
NCI-H460 lung = test system: NCI-H460 lung
NCI-H522 lung = test system: NCI-H522 lung
NCI/ADR-RES ovarian = test system: NCI/ADR-RES ovarian
OVCAR-3 ovarian = test system: OVCAR-3 ovarian
OVCAR-4 ovarian = test system: OVCAR-4 ovarian
OVCAR-5 ovarian = test system: OVCAR-5 ovarian
OVCAR-8 ovarian = test system: OVCAR-8 ovarian
PC-3 prostate = test system: PC-3 prostate
RPMI-8226 leukemia = test system: RPMI-8226 leukemia
RXF 393 renal = test system: RXF 393 renal
SF-268 CNS = test system: SF-268 CNS
SF-295 CNS = test system: SF-295 CNS
SF-539 CNS = test system: SF-539 CNS
SK-MEL-2 melanoma = test system: SK-MEL-2 melanoma
SK-MEL-28 melanoma = test system: SK-MEL-28 melanoma
SK-MEL-5 melanoma = test system: SK-MEL-5 melanoma
SK-OV-3 ovarian = test system: SK-OV-3 ovarian
SN12C renal = test system: SN12C renal
SNB-19 CNS = test system: SNB-19 CNS
SNB-75 CNS = test system: SNB-75 CNS
SR leukemia = test system: SR leukemia
SW-620 colon = test system: SW-620 colon
T-47D breast = test system: T-47D breast
TK-10 renal = test system: TK-10 renal
U251 CNS = test system: U251 CNS
UACC-257 melanoma = test system: UACC-257 melanoma
UACC-62 melanoma = test system: UACC-62 melanoma
UO-31 renal = test system: UO-31 renal
CCRF-CEM leukemia = test system: CCRF-CEM leukemia
HL-60(TB) leukemia = test system: HL-60(TB) leukemia

Cc1cc(N2CCOCC2)nc2ccc(Cc3ccc4nc(N5CCOCC5)cc(C)c4c3)cc12
TGI (786-0 renal): > 100 µM
TGI (A498 renal): > 100 µM
TGI (A549 NSCLC): > 100 µM
TGI (ACHN renal): > 100 µM
TGI (BT-549 breast): > 100 µM
TGI (CAKI-1 renal): > 100 µM
TGI (COLO 205 colon): 26.8 µM
TGI (DU-145 prostate): > 100 µM
TGI (EKVX NSCLC): > 100 µM
TGI (HCC-2998 colon): 34.7 µM
TGI (HCT-116 colon): 54.7 µM
TGI (HCT-15 colon): > 100 µM
TGI (HOP-62 NSCLC): > 100 µM
TGI (HOP-92 NSCLC): > 100 µM
TGI (HS 578T breast): > 100 µM
TGI (HT29 colon): 49.3 µM
TGI (IGROV1 ovarian): > 100 µM
TGI (K-562 leukemia): > 100 µM
TGI (KM12 colon): > 100 µM
TGI (LOX IMVI melanoma): > 100 µM
TGI (M14 melanoma): > 100 µM
TGI (MALME-3M melanoma): > 100 µM
TGI (MCF7 breast): > 100 µM
TGI (MDA-MB-231 breast): > 100 µM
TGI (MDA-MB-435): > 100 µM
TGI (MDA-N): > 100 µM
TGI (MOLT-4 leukemia): > 100 µM
TGI (NCI-H226 lung): > 100 µM
TGI (NCI-H23 lung): > 100 µM
TGI (NCI-H460 lung): > 100 µM
TGI (NCI-H522 lung): > 100 µM
TGI (NCI/ADR-RES ovarian): > 100 µM
TGI (OVCAR-3 ovarian): > 100 µM
TGI (OVCAR-4 ovarian): > 100 µM
TGI (OVCAR-5 ovarian): > 100 µM
TGI (OVCAR-8 ovarian): > 100 µM
TGI (PC-3 prostate): > 100 µM
TGI (RPMI-8226 leukemia): > 100 µM
TGI (RXF 393 renal): > 100 µM
TGI (SF-268 CNS): > 100 µM
TGI (SF-295 CNS): > 100 µM
TGI (SF-539 CNS): 71.3 µM
TGI (SK-MEL-2 melanoma): > 100 µM
TGI (SK-MEL-28 melanoma): > 100 µM
TGI (SK-MEL-5 melanoma): 36.6 µM
TGI (SK-OV-3 ovarian): > 100 µM
TGI (SN12C renal): > 100 µM
TGI (SNB-19 CNS): > 100 µM
TGI (SNB-75 CNS): > 100 µM
TGI (SR leukemia): > 100 µM
TGI (SW-620 colon): > 100 µM
TGI (T-47D breast): 52.2 µM
TGI (TK-10 renal): > 100 µM
TGI (U251 CNS): 88.5 µM
TGI (UACC-257 melanoma): > 100 µM
TGI (UACC-62 melanoma): > 100 µM
TGI (UO-31 renal): > 100 µM

CCOC(=O)[C@@H]1[C@@H](c2ccccc2)N(C)O[C@@]1(c1ccccc1)C(F)(F)F
TGI (786-0 renal): > 100 µM
TGI (A498 renal): > 100 µM
TGI (A549 NSCLC): > 100 µM
TGI (ACHN renal): > 100 µM
TGI (BT-549 breast): > 100 µM
TGI (CAKI-1 renal): > 100 µM
TGI (CCRF-CEM leukemia): 60.7 µM
TGI (COLO 205 colon): > 100 µM
TGI (DU-145 prostate): > 100 µM
TGI (EKVX NSCLC): > 100 µM
TGI (HCT-116 colon): > 100 µM
TGI (HCT-15 colon): > 100 µM
TGI (HOP-62 NSCLC): > 100 µM
TGI (HOP-92 NSCLC): > 100 µM
TGI (HS 578T breast): > 100 µM
TGI (HT29 colon): > 100 µM
TGI (IGROV1 ovarian): > 100 µM
TGI (KM12 colon): > 100 µM
TGI (LOX IMVI melanoma): > 100 µM
TGI (M14 melanoma): > 100 µM
TGI (MALME-3M melanoma): > 100 µM
TGI (MDA-MB-231 breast): > 100 µM
TGI (MDA-MB-435): > 100 µM
TGI (MDA-N): > 100 µM
TGI (NCI-H226 lung): > 100 µM
TGI (NCI-H23 lung): > 100 µM
TGI (NCI-H522 lung): > 100 µM
TGI (NCI/ADR-RES ovarian): > 100 µM
TGI (OVCAR-3 ovarian): > 100 µM
TGI (OVCAR-4 ovarian): > 100 µM
TGI (OVCAR-5 ovarian): > 100 µM
TGI (OVCAR-8 ovarian): > 100 µM
TGI (PC-3 prostate): > 100 µM
TGI (RPMI-8226 leukemia): > 100 µM
TGI (RXF 393 renal): > 100 µM
TGI (SF-268 CNS): > 100 µM
TGI (SF-295 CNS): > 100 µM
TGI (SK-MEL-2 melanoma): > 100 µM
TGI (SK-MEL-28 melanoma): > 100 µM
TGI (SK-MEL-5 melanoma): 72.3 µM
TGI (SK-OV-3 ovarian): > 100 µM
TGI (SN12C renal): > 100 µM
TGI (SNB-19 CNS): > 100 µM
TGI (SNB-75 CNS): > 100 µM
TGI (SW-620 colon): > 100 µM
TGI (T-47D breast): > 100 µM
TGI (TK-10 renal): > 100 µM
TGI (U251 CNS): > 100 µM
TGI (UACC-257 melanoma): > 100 µM
TGI (UACC-62 melanoma): > 100 µM
TGI (UO-31 renal): > 100 µM

O/N=C(\CC(O)(C(F)(F)F)C(F)(F)F)c1cccs1
TGI (786-0 renal): > 10 µM
TGI (A498 renal): > 10 µM
TGI (A549 NSCLC): > 10 µM
TGI (ACHN renal): > 10 µM
TGI (BT-549 breast): > 10 µM
TGI (CAKI-1 renal): > 10 µM
TGI (CCRF-CEM leukemia): > 10 µM
TGI (COLO 205 colon): > 10 µM
TGI (DU-145 prostate): > 10 µM
TGI (EKVX NSCLC): > 10 µM
TGI (HCC-2998 colon): > 10 µM
TGI (HCT-116 colon): > 10 µM
TGI (HCT-15 colon): > 10 µM
TGI (HL-60(TB) leukemia): > 10 µM
TGI (HOP-62 NSCLC): > 10 µM
TGI (HOP-92 NSCLC): > 10 µM
TGI (HS 578T breast): > 10 µM
TGI (HT29 colon): > 10 µM
TGI (IGROV1 ovarian): > 10 µM
TGI (K-562 leukemia): > 10 µM
TGI (KM12 colon): > 10 µM
TGI (LOX IMVI melanoma): > 10 µM
TGI (M14 melanoma): > 10 µM
TGI (MALME-3M melanoma): > 10 µM
TGI (MCF7 breast): > 10 µM
TGI (MDA-MB-231 breast): > 10 µM
TGI (MDA-MB-435): > 10 µM
TGI (MDA-N): > 10 µM
TGI (MOLT-4 leukemia): > 10 µM
TGI (NCI-H226 lung): > 10 µM
TGI (NCI-H23 lung): > 10 µM
TGI (NCI-H460 lung): > 10 µM
TGI (NCI-H522 lung): > 10 µM
TGI (NCI/ADR-RES ovarian): > 10 µM
TGI (OVCAR-3 ovarian): > 10 µM
TGI (OVCAR-4 ovarian): > 10 µM
TGI (OVCAR-5 ovarian): > 10 µM
TGI (OVCAR-8 ovarian): > 10 µM
TGI (PC-3 prostate): > 10 µM
TGI (RPMI-8226 leukemia): > 10 µM
TGI (RXF 393 renal): > 10 µM
TGI (SF-268 CNS): > 10 µM
TGI (SF-295 CNS): > 10 µM
TGI (SF-539 CNS): > 10 µM
TGI (SK-MEL-2 melanoma): > 10 µM
TGI (SK-MEL-28 melanoma): > 10 µM
TGI (SK-MEL-5 melanoma): > 10 µM
TGI (SK-OV-3 ovarian): > 10 µM
TGI (SN12C renal): > 10 µM
TGI (SNB-19 CNS): > 10 µM
TGI (SNB-75 CNS): > 10 µM
TGI (SW-620 colon): > 10 µM
TGI (T-47D breast): > 10 µM
TGI (TK-10 renal): > 10 µM
TGI (U251 CNS): > 10 µM
TGI (UACC-257 melanoma): > 10 µM
TGI (UACC-62 melanoma): > 10 µM
TGI (UO-31 renal): > 10 µM
